US10578608B1, “Tools to detect, track and target cancer cells in vivo” (The Regents of the University of California, priority 2015, dated 2020)
k = constrained ethyl (cEt); d = 2'-deoxy (DNA)

Columns and labels:
MSI1 RNA = assay: MSI1 expression after ASO free uptake (q-RT-PCR); type: cell-based, human; settings: 24 hours, MIA PaCa-2 cells
Description: (FIG. 8 F to FIG. 8H) Real time PCR analysis of Msi expression following ASO free uptake in MIA PaCa-2 cells. MIA PaCa-2 cells were treated with 2 Gen 2.5 cEt ASOx target MSI1 or Control Gen 2.5 ASO for 24 hours, RNA was isolated and target knockdown (MSI1 RNA level) was determined by q-RT-PCR. IC50 values for each ASO were calculated using GraphPad Prism software; each treatment condition was performed in triplicate. (FIG. 8I) Colony formation assay in MSI1 ASO-treated MIA PaCa-2 cells after weekly delivery of control or MSI1 ASOs; colonies were counted after 4 weeks; n=3 for each ASO tested. (FIG. 8J) In vivo tracking of tumor volume in MSI1 ASO treated MIA PaCa-2 tumors with intratumoral delivery of control or MSI1 ASOs every day for 5 days followed by 2 days off; n=5 for each ASO tested. Nonlinear regression was used to determine the difference in slope between Control ASO and MSI1-ASO-1 (p<0.001). (FIG. 8K) In vivo tracking of tumor volume of primary KP^f/fC tumors with intratumoral delivery of control ASO or MSI1 ASOs following tumor establishment (n=4). […]
To identify human Msi ASO inhibitors, rapid throughput screens were performed to identify effective ASOs as previously described (Wang, J. C. Y. & Dick, J. E. Cancer stem cells: lessons from leukemia. Trends in Cell Biology 15, 494-501 (2005); Reya, T., Morrison, S. J., Clarke, M. F. & Weissman, I. L. Stem cells, cancer, and cancer stem cells. Nature 414(6859):105-11 (2001); Carroll, J. B. et al. Potent and Selective Antisense Oligonucleotides Targeting Single-Nucleotide Polymorphisms in the Huntington Disease Gene/Allele-Specific Silencing of Mutant Huntingtin. Molecular Therapy 19, 2178-2185 (2009); Samuel, V. T. et al. Targeting foxo1 in mice using antisense oligonucleotide improves hepatic and peripheral insulin action. […] Gene expression was assessed with taqman probes for MSI1 and MSI2. […] Colonies were counted 21 days after the first ASO treatment. […] Tumor measurements were recorded every 3 days. […]

MIA PaCa-2 tumors = assay: In vivo growth of MIA PaCa-2 flank tumors with intratumoral ASO; parameters: species or system mouse; settings: intratumoral delivery, four weeks (5 days on and 2 days off), NSG mice
Source text: Although ASOs have been used to inhibit gene expression in a variety of tissues (Carroll, J. B. et al. Potent and Selective Antisense Oligonucleotides Targeting Single-Nucleotide Polymorphisms in the Huntington Disease Gene/Allele-Specific Silencing of Mutant Huntingtin. Molecular Therapy 19, 2178-2185 (2009); Hung, G. et al. Characterization of Target mRNA Reduction Through In SituRNA Hybridization in Multiple Organ Systems Following Systemic Antisense Treatment in Animals. Nucleic Acid Therapeutics 23, 369-378 (2013); Rigo, F. et al. Pharmacology of a central nervous system delivered 2′-O-methoxyethyl-modified survival of motor neuron splicing oligonucleotide in mice and nonhuman primates. Journal of Pharmacology and Experimental Therapeutics 350, 46-55 (2014)), whether pancreatic cancer cells can take up ASOs was not known. […] Functionally MSI1 ASOs led to a marked reduction in colony numbers as well as in colony size, with a cumulative reduction of ˜2.5 fold in total growth (FIG. 4I). To test the impact of ASO mediated MSI1 inhibition in vivo, human pancreatic cancer cells were transplanted until growth was measurable. Subsequently, MSI1 inhibitors were delivered intratumorally for a period of four weeks (5 days on and 2 days off) and tumor growth monitored. […] KP^f/fC pancreatic tumor cells were isolated, transplanted and monitored until measurable growth (30 mm^3). […]

5′-ATATGATACAGGACGG-3′ (sugars from the 5' end k3 d10 k3, backbone and methylation of C not given here) [ASO-1]
MSI1 expression in cell lines after ASO treatment (MSI1 RNA): inhibited MSI1 expression
Tumor growth of human pancreatic cancer cell line derived tumors (MIA PaCa-2 tumors): significant reduction in the rate of tumor growth
